Legend:
[1] = tested on: Broccoli (RNA, aptamer) GGGAGACGGUCGGGUCCAGAUAUUCGUAUCUGUCGAGUAGAGUGUGGGCUC; test: absorbance and fluorescence titration; details: 140 mM KCl; 10 mM Tris-HCl pH 7.5
[2] = tested on: Control G4 RNA (utr-z) (RNA, G4) GGCGGCGGCAGUGGCGGCGG; test: fluorescence light-up; details: 140 mM KCl; 10 mM Tris-HCl pH 7.5, 5 μM dye, 5 μM RNA
[3] = tested on: Mango II (RNA, aptamer) GCACGUACGAAGGAGAGGAGAGGAAGAGGAGAGUACGUGC; test: absorbance shift and fluorescence light-up; details: 140 mM KCl; 10 mM Tris-HCl pH 7.5, 5 μM dye, 5 μM RNA
[4] = tested on: Mango IV (RNA, aptamer) GCACGUACCGAGGGAGUGGUGAGGAUGAGGCGAGUACGUGC; test: absorbance shift and fluorescence light-up; details: 140 mM KCl; 10 mM Tris-HCl pH 7.5, 5 μM dye, 5 μM RNA
[5] = tested on: ds_Mango II (RNA, aptamer) GGUGUGGGGCACGUACGAAGGAGAGGAGAGGAAGAGGAGAGUACGUGCCCCACA; test: fluorescence light-up; details: 140 mM KCl
[6] = tested on: Broccoli (RNA, aptamer) GGGAGACGGUCGGGUCCAGAUAUUCGUAUCUGUCGAGUAGAGUGUGGGCUC; test: fluorescence titration; details: affinity called insignificant compared to that of Mango II; highest concentration not stated
[7] = tested on: Mango II (RNA, aptamer) GCACGUACGAAGGAGAGGAGAGGAAGAGGAGAGUACGUGC; test: fluorescence light-up titration (Monolith NT.115); details: 140 mM KCl; 10 mM Tris-HCl pH 7.5, 0.05% Tween-20, 25 °C, 10 nM dye; rough evaluation
[8] = tested on: Mango IV (RNA, aptamer) GCACGUACCGAGGGAGUGGUGAGGAUGAGGCGAGUACGUGC; test: fluorescence light-up titration (Monolith NT.115); details: 140 mM KCl; 10 mM Tris-HCl pH 7.5, 0.05% Tween-20, 25 °C, 10 nM dye; rough evaluation

| SMILES | binding [2] | binding [3] | binding [4] | also measured |
| --- | --- | --- | --- | --- |
| CC1=N/C(=C\c2cc(F)c(O)c(F)c2)C(=O)N1C | – | – | – | binding [1]: yes |
| CN1C=CC(=Cc2sc3ccccc3[n+]2Cc2cn(CCOCCOCCOCCNC(=O)CCCC[C@@H]3SC[C@@H]4NC(=O)N[C@@H]43)nn2)c2ccccc21 | yes | yes | yes | – |
| CN1C=CC(=Cc2sc3ccccc3[n+]2CC(=O)NCCOCCOCCOCCNC(=O)CCCC[C@@H]2SC[C@@H]3NC(=O)N[C@@H]32)c2ccccc21 | yes | yes | yes | binding ([5]; buffer stated for 4b only): yes |
| O=C(CCCC[C@@H]1SC[C@@H]2NC(=O)N[C@@H]21)NCCOCCOCCOCCn1cc(C[n+]2c(/C=C/c3cc4c5c(c3)CCCN5CCC4)sc3ccccc32)nn1 | – | yes | yes | – |
| CN(C)c1ccc(/C=C/c2sc3ccccc3[n+]2Cc2cn(CCOCCOCCOCCNC(=O)CCCC[C@@H]3SC[C@@H]4NC(=O)N[C@@H]43)nn2)cc1 | weak | – | – | binding ([5]; 20 mM sodium phosphate pH 7.2, 0.05% Tween-20, 1 μM): yes; binding [6]: no; KD [7]: 80 ± 60 nM; KD [8]: 600 ± 400 nM |
| CC1=CC(C)(C)N(C)c2ccc(/C=C/c3sc4ccccc4[n+]3Cc3cn(CCOCCOCCOCCNC(=O)CCCC[C@@H]4SC[C@@H]5NC(=O)N[C@@H]54)nn3)cc21 | – | yes | yes | – |
